Reference: patent US8217030B2, “Association of a sinus node if current inhibitor and a beta blocker” (Les Laboratoires Servier, priority 2008, dated 2012)

Tests used:
[1] = tested on: patients with angina pectoris treated with β-blockers; assay: treadmill exercise tolerance test (ETT), Bruce protocol, clinical study; assay type: in vivo, human
Method: (§1) The patients selected for this clinical study are men and women from 18 to 75 years of age who have suffered from angina pectoris for at least 3 months and been treated with β-blockers such as atenolol (50 mg o.d.) or any other β-blocker at an equivalent dose for at least 3 months. These patients have, despite their treatment, a positive exercise tolerance test (ETT) and daily symptoms of angina pectoris.
(§2) This double-blind, parallel-group, international clinical study was carried out in 889 patients. The patients, all of whom are receiving atenolol, are randomised into two groups: • in addition to the β-blocker, the first group is given ivabradine (hydrochloride) at a dose of 5 mg twice a day for two months and then at a dose of 7.5 mg twice a day for a further two months; • in addition to the β-blocker, the second group is given a placebo for 4 months.
The patients are subjected to a treadmill exercise tolerance test (ETT) in accordance with the Bruce protocol before ivabradine is administered (that is when receiving β-blocker on its own), and after 4 months of treatment with the association between ivabradine and atenolol. The principal parameters measured in the course of the effort test are: • total exercise duration (TED)—the TED includes the time taken for the treadmill to come to a stop or, that is, a duration of about 10 seconds starting from the patient's request to stop the exercise; • the time until the “angina pectoris” pain forces the patient to stop the exercise (TLA); • the time until the onset of the “angina pectoris” pain (TAO); • the time taken for a 1 mm ST segment depression (TST) to appear on the electrocardiographic recording, this being a reflection of ischaemia and corresponding to the electrical sign of pain in the cardiac muscle.
These measurements are made at trough activity of the association of active ingredients or, that is, 12±1 hours and 24±2 hours after administration of the active ingredients.
The mean improvements in the various parameters measured during the treadmill exercise test, between the value measured before the start of treatment with ivabradine and the end of the treatment period, are set out in the table below: […]

[2] = tested on: patients with angina pectoris treated with β-blockers; assay: heart rate at rest in clinical study; assay type: in vivo, human; conditions: after 4 months of treatment; heart rate at rest on entry 67±7 beats per minute
Method: as §1, §2
The patients have a mean age of 60±8 years. On entry into the study, the mean systolic/diastolic arterial pressure and heart rate of the patients at rest are respectively, on average: 127±12/78±7 mmHg and 67±7 beats per minute. After 4 months of treatment with the association, the heart rate has reduced by 9±10 bpm (β-blocker+placebo 1±10 bpm).

[3] = mean ± SD, before ivabradine vs after 4 months of treatment, on top of atenolol, at trough activity

Compound | exercise tolerance ([1]; patients already receiving a standard dose of β-blockers) | Improvement in time taken for a 1 mm ST segment depression (TST) [1, 3] [s] | Improvement in time until angina pectoris pain forces the patient to stop the exercise (TLA) [1, 3] [s] | Improvement in time until onset of angina pectoris pain (TAO) [1, 3] [s] | Improvement in total exercise duration (TED) ([1]; mean ± SD, before ivabradine vs after 4 months of treatment, on top of atenolol, ivabradine 5 mg b.i.d. 2 months then 7.5 mg b.i.d. 2 months, at trough activity) [s] | reduction of heart rate [2] [bpm]
COc1cc2c(cc1OC)CC(=O)N(CCCN(C)C[C@H]1Cc3cc(OC)c(OC)cc31)CC2 [ivabradine, 3-{3-[{[(7S)-3,4-dimethoxybicyclo[4.2.0]octa-1,3,5-trien-7-yl]methyl}(methyl)amino]propyl}-7,8-dimethoxy-1,3,4,5-tetrahydro-2H-3-benzazepin-2-one] | capable of improving exercise tolerance |  |  |  |  | 
CC(C)NCC(O)COc1ccc(CC(N)=O)cc1 (stereo not drawn) [β-blocker + placebo, atenolol] |  | 15 ± 87 | 9 ± 64 | 23 ± 79 | 8 ± 64 | 1±10
